“And” between values parts separate entries of the source, which are not always exact repeats. Equal values may be shown once. Toxic doses and inconclusive results are not listed. Rule for the calls: active = survival T/C of 150% or more; inactive = T/C below 125% in these data.
Tested on: CD2F1 mice, L1210 leukemia ip, survival T/C
Assay: NCI In Vivo Anticancer Drug Screen. Data for tumor model L1210 Leukemia (intraperitoneal) in CD2F1 (CDF1) mice
Settings: higher = longer survival
In short: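 Tumor-bearing mice (transplanted tumor) were split into treated and vehicle control groups, and the measured endpoint of each treated group was divided by that of its vehicle controls.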

[1] = endpoint: mean survival time, dose: 100.0 mg/kg/injection, schedule: Q01DX009 (ip), vehicle: saline with Tween-80
[2] = endpoint: mean survival time, dose: 200.0 mg/kg/injection, schedule: Q01DX009 (ip), vehicle: saline with Tween-80
[3] = endpoint: mean survival time, dose: 400.0 mg/kg/injection, schedule: Q01DX009 (ip), vehicle: saline with Tween-80
[4] = endpoint: mean survival time, dose: 100.0 mg/kg/injection, schedule: Q04DX003 (ip), vehicle: saline with Tween-80
[5] = endpoint: mean survival time, dose: 200.0 mg/kg/injection, schedule: Q04DX003 (ip), vehicle: saline with Tween-80
[6] = endpoint: mean survival time, dose: 400.0 mg/kg/injection, schedule: Q04DX003 (ip), vehicle: saline with Tween-80
[7] = endpoint: mean survival time, dose: 100.0 mg/kg/injection, schedule: Q01DX001 (ip), vehicle: saline with Tween-80
[8] = endpoint: mean survival time, dose: 200.0 mg/kg/injection, schedule: Q01DX001 (ip), vehicle: saline with Tween-80
[9] = endpoint: mean survival time, dose: 400.0 mg/kg/injection, schedule: Q01DX001 (ip), vehicle: saline with Tween-80
[10] = endpoint: mean survival time, dose: 12.5 mg/kg/injection, schedule: Q01DX009 (ip), vehicle: saline with Tween-80
[11] = endpoint: mean survival time, dose: 25.0 mg/kg/injection, schedule: Q01DX009 (ip), vehicle: saline with Tween-80
[12] = endpoint: mean survival time, dose: 50.0 mg/kg/injection, schedule: Q01DX009 (ip), vehicle: saline with Tween-80

Measured: T/C

O=C1CC2C=CCC12 (stereo unspecified)
inactive: [1] 98 % of control | [2] 98 % of control | [3] 100 % of control

O=C(O)CCC(CCC(=O)O)(C(=O)O)C(=O)O
inactive: endpoint: median survival time, dose: 75.0 mg/kg/injection, schedule: Q01DX009 (ip), vehicle: saline 98 % of control | endpoint: median survival time, dose: 150.0 mg/kg/injection, schedule: Q01DX009 (ip), vehicle: saline 96 % of control | endpoint: median survival time, dose: 300.0 mg/kg/injection, schedule: Q01DX009 (ip), vehicle: saline 96 % of control

O=C(N/N=C/c1ccc2c(c1)CCC2)c1ccncc1
inactive: [4] 98 % of control | [5] 96 % of control | [6] 98 % of control

C/C(=N\Nc1ccc([N+](=O)[O-])cc1[N+](=O)[O-])C1CCCCC1
inactive: [4] 100 % of control | [5] 91 % of control | [6] 91 % of control

O=C(Nc1cccc(Cl)c1)c1ccccc1
inactive: [1] 103 % of control | [4] 91 % of control | [2] 89 % of control | [5] 110 % of control | [3] 98 % of control | [6] 94 % of control

O=C(O)C(/C=C/c1ccccc1)c1ccccc1 (stereo unspecified)
inactive: [7] 112 % of control | [1] 101 % of control | [4] 92 % of control | [8] 95 % of control | [5] 91 % of control | [9] 88 % of control | [3] 103 % of control | [6] 91 % of control

COc1cc2ccncc2cc1O
inactive: endpoint: mean survival time, dose: 25.0 mg/kg/injection, schedule: Q01DX009 (ip), vehicle: water 96 % of control | endpoint: mean survival time, dose: 50.0 mg/kg/injection, schedule: Q01DX009 (ip), vehicle: water 96 % of control

Cc1ccc(S(=O)(=O)N(C)Cc2ccccc2)cc1
inactive: [1] 96 % of control | [2] 106 % of control | [3] 98 % of control

COc1ccc2nc3cc(Cl)ccc3c(Nc3ccc(NS(C)(=O)=O)cc3)c2n1
inactive: endpoint: mean survival time, dose: 12.5 mg/kg/injection, schedule: Q01DX009 (ip), vehicle: other 96 % of control | endpoint: mean survival time, dose: 25.0 mg/kg/injection, schedule: Q01DX009 (ip), vehicle: other 104 % of control | endpoint: mean survival time, dose: 50.0 mg/kg/injection, schedule: Q01DX009 (ip), vehicle: other 96 % of control | endpoint: mean survival time, dose: 100.0 mg/kg/injection, schedule: Q01DX009 (ip), vehicle: other 94 % of control

Cc1cccc(C)c1NC(=O)c1ccccc1Cl
inactive: [4] 98 % of control | [5] 97 % of control | [6] 89 % of control

CC(=O)OCC1OC(n2ccc(-n3cncn3)nc2=O)CC1N=[N+]=[N-] (stereo unspecified)
inactive: endpoint: median survival time, dose: 12.5 mg/kg/injection, schedule: Q01DX005 (ip), vehicle: saline with Tween-80 101 % of control | endpoint: median survival time, dose: 25.0 mg/kg/injection, schedule: Q01DX005 (ip), vehicle: saline with Tween-80 104 % of control | endpoint: median survival time, dose: 50.0 mg/kg/injection, schedule: Q01DX005 (ip), vehicle: saline with Tween-80 98 % of control | endpoint: median survival time, dose: 100.0 mg/kg/injection, schedule: Q01DX005 (ip), vehicle: saline with Tween-80 94 % of control | endpoint: median survival time, dose: 200.0 mg/kg/injection, schedule: Q01DX005 (ip), vehicle: saline with Tween-80 93 % of control

CNC(=S)SC1=NS(=O)(=O)c2ccccc2N1
inactive: endpoint: median survival time, dose: 25.0 mg/kg/injection, schedule: Q01DX005 (ip), vehicle: Klucel (hydroxypropylcellulose) (HPC) 106 % of control | endpoint: median survival time, dose: 50.0 mg/kg/injection, schedule: Q01DX005 (ip), vehicle: Klucel (hydroxypropylcellulose) (HPC) 101 % of control | endpoint: median survival time, dose: 100.0 mg/kg/injection, schedule: Q01DX005 (ip), vehicle: Klucel (hydroxypropylcellulose) (HPC) 108 % of control | endpoint: median survival time, dose: 144.0 mg/kg/injection, schedule: Q01DX005 (ip), vehicle: Klucel (hydroxypropylcellulose) (HPC) 113 % of control | endpoint: median survival time, dose: 200.0 mg/kg/injection, schedule: Q01DX005 (ip), vehicle: Klucel (hydroxypropylcellulose) (HPC) 118 % of control

Cc1ccc([PH+](c2ccc(C)cc2)c2ccc(C)cc2)cc1.Cc1ccc([PH+](c2ccc(C)cc2)c2ccc(C)cc2)cc1.[Cl][Hg][Cl]
inactive: endpoint: mean survival time, dose: 50.0 mg/kg/injection, schedule: Q01DX009 (ip), vehicle: saline 103 % of control | endpoint: mean survival time, dose: 100.0 mg/kg/injection, schedule: Q01DX009 (ip), vehicle: saline 95 % of control | endpoint: mean survival time, dose: 200.0 mg/kg/injection, schedule: Q01DX009 (ip), vehicle: saline 91 % of control

Cc1c2cc(Cl)c3ccccc3c2c[n+]2ccccc12
inactive: endpoint: mean survival time, dose: 3.12 mg/kg/injection, schedule: Q01DX009 (ip), vehicle: saline with Tween-80 102 % of control and 106 % of control | endpoint: mean survival time, dose: 6.25 mg/kg/injection, schedule: Q01DX009 (ip), vehicle: saline with Tween-80 100 % of control and 109 % of control | [10] 118 % of control and 102 % of control | [11] 114 % of control and 104 % of control | [12] 114 % of control and 110 % of control | [1] 124 % of control and 102 % of control

[Cl][Pt][Cl].c1ccc2[nH]c(C3CCCC[N-]3)nc2c1 (stereo unspecified)
inactive: [10] 93 % of control | [11] 98 % of control | [12] 94 % of control | [2] 91 % of control

O=C(Nc1nccs1)c1ccc(Cl)cc1
inactive: [12] 96 % of control | [1] 96 % of control | [2] 92 % of control

CC(C)(C)[Si](OP(=O)(O[Si](c1ccccc1)(c1ccccc1)C(C)(C)C)N(CCCl)CCCl)(c1ccccc1)c1ccccc1
inactive: endpoint: mean survival time, dose: 15.63 mg/kg/injection, schedule: Q01DX001 (ip), vehicle: distilled water + Tween-80 101 % of control | endpoint: mean survival time, dose: 31.25 mg/kg/injection, schedule: Q01DX001 (ip), vehicle: distilled water + Tween-80 95 % of control | endpoint: mean survival time, dose: 62.5 mg/kg/injection, schedule: Q01DX001 (ip), vehicle: distilled water + Tween-80 101 % of control | endpoint: mean survival time, dose: 125.0 mg/kg/injection, schedule: Q01DX001 (ip), vehicle: distilled water + Tween-80 98 % of control | endpoint: mean survival time, dose: 250.0 mg/kg/injection, schedule: Q01DX001 (ip), vehicle: distilled water + Tween-80 92 % of control | endpoint: mean survival time, dose: 500.0 mg/kg/injection, schedule: Q01DX001 (ip), vehicle: distilled water + Tween-80 103 % of control

CCOC(=O)C(C(=O)OCC)C(=O)C(C)C
inactive: [4] 93 % of control | [5] 97 % of control | [6] 95 % of control

FC(F)(F)S.[Hg]
inactive: endpoint: mean survival time, dose: 5.0 mg/kg/injection, schedule: Q04DX003 (ip), vehicle: saline 101 % of control | endpoint: mean survival time, dose: 10.0 mg/kg/injection, schedule: Q04DX003 (ip), vehicle: saline 97 % of control | endpoint: mean survival time, dose: 20.0 mg/kg/injection, schedule: Q04DX003 (ip), vehicle: saline 95 % of control

COC1C2CCC1N(C)CC2 (stereo unspecified)
inactive: endpoint: mean survival time, dose: 37.5 mg/kg/injection, schedule: Q04DX002 (ip), vehicle: saline with Tween-80 106 % of control | endpoint: mean survival time, dose: 75.0 mg/kg/injection, schedule: Q04DX002 (ip), vehicle: saline with Tween-80 98 % of control | endpoint: mean survival time, dose: 150.0 mg/kg/injection, schedule: Q04DX002 (ip), vehicle: saline with Tween-80 117 % of control | endpoint: mean survival time, dose: 300.0 mg/kg/injection, schedule: Q04DX002 (ip), vehicle: saline with Tween-80 95 % of control

COc1cc(Cc2nccc3ccccc23)cc([N+](=O)[O-])c1OC
inactive: [7] 97 % of control | [8] 92 % of control | [9] 89 % of control

C=CC1(C)CC(=O)C2(O)C(C)(O1)C(OC(C)=O)C(O)C1C(C)(C)CCC(O)C12C (stereo unspecified)
inactive: endpoint: median survival time, dose: 4.0 mg/kg/injection, schedule: Q01DX005 (ip), vehicle: other 98 % of control | endpoint: median survival time, dose: 8.0 mg/kg/injection, schedule: Q01DX005 (ip), vehicle: other 101 % of control | endpoint: median survival time, dose: 16.0 mg/kg/injection, schedule: Q01DX005 (ip), vehicle: other 93 % of control

CC(=O)NC(CCC(=O)O)C(=O)O.[NH-]C1CCCCC1[NH-].[Pt+2] (stereo unspecified)
inactive: endpoint: median survival time, dose: 6.25 mg/kg/injection, schedule: Q04DX003 (ip), vehicle: saline 97 % of control | endpoint: median survival time, dose: 12.5 mg/kg/injection, schedule: Q04DX003 (ip), vehicle: saline 110 % of control | endpoint: median survival time, dose: 25.0 mg/kg/injection, schedule: Q04DX003 (ip), vehicle: saline 102 % of control | endpoint: median survival time, dose: 50.0 mg/kg/injection, schedule: Q04DX003 (ip), vehicle: saline 97 % of control | endpoint: median survival time, dose: 100.0 mg/kg/injection, schedule: Q04DX003 (ip), vehicle: saline 112 % of control

NC1=NC(=O)/C(=C/c2ccccc2)S1
inactive: [4] 93 % of control | [5] 97 % of control | [6] 97 % of control

COCCC1(CN2c3ccccc3Sc3ccccc32)CCN(C)C1 (stereo unspecified)
inactive: endpoint: mean survival time, dose: 100.0 mg/kg/injection, schedule: Q04DX003 (ip), vehicle: saline 94 % of control | endpoint: mean survival time, dose: 200.0 mg/kg/injection, schedule: Q04DX003 (ip), vehicle: saline 96 % of control
